Data published in the NIST ThermoML archive (doi:10.1016/j.tca.2018.03.014).
± gives the expanded uncertainty stated by the source.

How the values were obtained:
[1] = Molar enthalpy of transition or fusion; conditions: Crystal 2; DSC
[2] = Crystal; DTA

- Molar enthalpy of transition or fusion [1]: 16 ± 0.335 kcal/mol
- Normal melting temperature [2]: 58.10 ± 4 °C
Structure (SMILES): CCCCCCCCCCCCCCCCCCO [1-octadecanol]
